Measured values reported in patent publication US11339171B2, “MDM2 inhibitors” (Gan & Lee Pharmaceuticals, priority 2017, dated 2022).

biological target: T1, MDM2 (Homo sapiens, UniProt Q00987); test: Inhibition test of MDM2-P53 (GST-MDM2, Biotin-P53, Anti-GST-Tb, SA-XL665); format: binding; details: not given
T1 construct: made in house
In short: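 Compounds, serially diluted 5-fold (twelve concentrations), were shaken for 90 min at 25° C with a mix of GST-MDM2 (4 nM final), Biotin-P53, anti-GST-Tb and SA-XL665. Buffer: 1×PBS, 0.1% BSA, 5 mM DTT, 1 mM AEBSF; signal read on a microplate reader.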

T1 sequence (Q00987 whole entry): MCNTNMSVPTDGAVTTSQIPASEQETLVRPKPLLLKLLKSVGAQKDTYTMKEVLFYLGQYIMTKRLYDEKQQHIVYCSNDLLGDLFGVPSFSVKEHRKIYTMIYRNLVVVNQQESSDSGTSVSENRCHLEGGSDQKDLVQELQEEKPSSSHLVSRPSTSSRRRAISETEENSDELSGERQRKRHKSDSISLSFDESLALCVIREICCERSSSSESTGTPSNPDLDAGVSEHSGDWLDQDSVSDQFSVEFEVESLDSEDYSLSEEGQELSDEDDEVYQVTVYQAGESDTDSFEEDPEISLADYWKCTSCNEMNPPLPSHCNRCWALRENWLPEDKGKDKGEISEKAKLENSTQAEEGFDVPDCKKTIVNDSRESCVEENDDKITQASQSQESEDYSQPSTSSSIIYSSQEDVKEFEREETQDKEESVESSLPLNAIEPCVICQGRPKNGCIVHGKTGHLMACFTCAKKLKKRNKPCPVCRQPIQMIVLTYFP

| Compound | IC50 [nM] |
| --- | --- |
| COc1cc(OC)c(-c2nc3c(n2C(C)C)[C@@]2(C(=O)Nc4cc(Cl)ccc42)N(c2ccc(C(N)=O)c(Cl)c2)C3=O)cn1 [Example S-65, (S)-2-chloro-4-(6-chloro-2′-(4,6-dimethoxypyridin-3-yl)-3′-isopropyl-2,6′-dioxo-3′,6′-dihydro-5′H-spiro[dihydroindole-3,4′-pyrrolo[3,4-d]imidazole]-5′-yl)benzamide] | 4.04 |
| COc1cc(C(C)C)ccc1-c1nc2c(n1C(C)C)[C@@]1(C(=O)Nc3cc(Cl)ccc31)N(c1cccc(Cl)c1)C2=O [Example S-93, (S)-6-chloro-5′-(3-chlorophenyl)-3′-isopropyl-2′-(4-isopropyl-2-methoxyphenyl)-3′H-spiro[dihydroindole-3,4′-pyrrolo[3,4-d]imidazole]-2,6′(5′H)-dione] | 3.89 |
| COc1cc(F)c(-c2nc3c(n2C(C)C)[C@@]2(C(=O)Nc4cc(Cl)ccc42)N(c2cc(Cl)ccc2C)C3=O)c(OC)c1 [Example S-130, (S)-6-chloro-5′-(5-chloro-2-methylphenyl)-2′-(2-fluoro-4,6-dimethoxyphenyl)-3′-isopropyl-3′H-spiro[dihydroindole-3,4′-pyrrolo[3,4-d]imidazole]-2,6′(5′H)-dione] | 5.59 |
| COc1ncc(-c2nc3c(n2C(C)C)[C@@]2(C(=O)Nc4cc(Cl)ccc42)N(c2cc(Cl)ccc2C#N)C3=O)c(OC)n1 [Example S-151, (S)-4-chloro-2-(6-chloro-2′-(2,4-dimethoxypyrimidin-5-yl)-3′-isopropyl-2,6′-dioxo-3′,6′-dihydro-5′H-spiro[dihydroindole-3,4′-pyrrolo[3,4-d]imidazole]-5′-yl)benzonitrile] | 1410 |

system: human osteosarcoma cell line SJSA-1; test: Inhibition of proliferation of human osteosarcoma cell line SJSA-1 (DAPI staining, In Cell Analyzer); details: labels are Example numbers; the compounds with S-configuration are meant

| Compound | inhibitory effect on human osteosarcoma cell line SJSA-1 compared with positive control compound HDM201 |
| --- | --- |
| COc1cc(F)ccc1-c1nc2c(n1C(C)C)C1(C(=O)Nc3cc(Cl)ccc31)N(c1cc(Cl)ccc1C)C2=O (stereo not drawn) [Example 4, 6-chloro-5′-(5-chloro-2-methylphenyl)-2′-(4-fluoro-2-methoxyphenyl)-3′-isopropyl-3′H-spiro[dihydroindole-3,4′-pyrrolo[3,4-d]imidazole]-2,6′(5′H)-dione] | better |
| COc1ccc(-c2nc3c(n2C(C)C)C2(C(=O)Nc4cc(Cl)ccc42)N(c2cc(Cl)ccc2C)C3=O)c(OC)c1 (stereo not drawn) [Example 9, 6-chloro-5′-(5-chloro-2-methylphenyl)-2′-(2,4-dimethoxyphenyl)-3′-isopropyl-3′H-spiro[dihydroindole-3,4′-pyrrolo[3,4-d]imidazole]-2,6′(5′H)-dione] | better |
| COc1ccc(C#N)cc1-c1nc2c(n1C(C)C)C1(C(=O)Nc3cc(Cl)ccc31)N(c1cc(Cl)ccc1C)C2=O (stereo not drawn) [Example 13, 3-(6-chloro-5′-(5-chloro-2-methylphenyl)-3′-isopropyl-2,6′-dioxo-5′,6′-dihydro-3′H-spiro[dihydroindole-3,4′-pyrrolo[3,4-d]imidazole]-2′-yl)-4-methoxybenzonitrile] | better |
| COc1cc(N(C)C)ccc1-c1nc2c(n1C(C)C)C1(C(=O)Nc3cc(Cl)ccc31)N(c1cc(Cl)ccc1C)C2=O (stereo not drawn) [Example 23, 6-chloro-5′-(5-chloro-2-methylphenyl)-2′-(4-(dimethylamino)-2-methoxyphenyl)-3′-isopropyl-3′H-spiro[dihydroindole-3,4′-pyrrolo[3,4-d]imidazole]-2,6′(5′H)-dione] | better |
| COc1cc(C)ccc1-c1nc2c(n1C(C)C)C1(C(=O)Nc3cc(Cl)ccc31)N(c1cc(Cl)ccc1C)C2=O (stereo not drawn) [Example 24, 6-chloro-5′-(5-chloro-2-methylphenyl)-3′-isopropyl-2′-(2-methoxy-4-methylphenyl)-3′H-spiro[dihydroindole-3,4′-pyrrolo[3,4-d]imidazole]-2,6′(5′H)-dione] | better |
| CNc1ccc(-c2nc3c(n2C(C)C)C2(C(=O)Nc4cc(Cl)ccc42)N(c2cc(Cl)ccc2C)C3=O)c(OC)c1 (stereo not drawn) [Example 25] | better |
| COc1cc(C(C)C)ccc1-c1nc2c(n1C(C)C)C1(C(=O)Nc3cc(Cl)ccc31)N(c1cc(Cl)ccc1C)C2=O (stereo not drawn) [Example 32, 6-chloro-5′-(5-chloro-2-methylphenyl)-3′-isopropyl-2′-(4-isopropyl-2-methoxyphenyl)-3′H-spiro[dihydroindole-3,4′-pyrrolo[3,4-d]imidazole]-2,6′(5′H)-dione] | better |
| CCc1ccc(-c2nc3c(n2C(C)C)C2(C(=O)Nc4cc(Cl)ccc42)N(c2cc(Cl)ccc2C)C3=O)c(OC)c1 (stereo not drawn) [Example 33, 6-chloro-5′-(5-chloro-2-methylphenyl)-2′-(4-ethyl-2-methoxyphenyl)-3′-isopropyl-3′H-spiro[dihydroindole-3,4′-pyrrolo[3,4-d]imidazole]-2,6′(5′H)-dione] | better |
| COc1cc(OC)c(-c2nc3c(n2C(C)C)C2(C(=O)Nc4cc(Cl)ccc42)N(c2cc(Cl)ccc2C)C3=O)cc1C (stereo not drawn) [Example 83, 6-chloro-5′-(5-chloro-2-methylphenyl)-2′-(2,4-dimethoxy-5-methylphenyl)-3′-isopropyl-3′H-spiro[dihydroindole-3,4′-pyrrolo[3,4-d]imidazole]-2,6′(5′H)-dione] | better |
| COc1cc(C2CC2)ccc1-c1nc2c(n1C(C)C)C1(C(=O)Nc3cc(Cl)ccc31)N(c1cc(Cl)ccc1C)C2=O (stereo not drawn) [Example 86, 6-chloro-5′-(5-chloro-2-methylphenyl)-2′-(4-cyclopropyl-2-methoxyphenyl)-3′-isopropyl-3′H-spiro[dihydroindole-3,4′-pyrrolo[3,4-d]imidazole]-2,6′(5′H)-dione] | better |
| COc1cc(C(C)C)ccc1-c1nc2c(n1C(C)C)C1(C(=O)Nc3cc(Cl)ccc31)N(c1cc(Cl)cnc1C)C2=O (stereo not drawn) [Example 89, 6-chloro-5′-(5-chloro-2-methylpyridin-3-yl)-3′-isopropyl-2′-(4-isopropyl-2-methoxyphenyl)-3′H-spiro[dihydroindole-3,4′-pyrrolo[3,4-d]imidazole]-2,6′(5′H)-dione] | better |
| COc1cc(N(C)C)c(C)cc1-c1nc2c(n1C(C)C)C1(C(=O)Nc3cc(Cl)ccc31)N(c1cc(Cl)ccc1C)C2=O (stereo not drawn) [Example 91, 6-chloro-5′-(5-chloro-2-methylphenyl)-2′-(4-(dimethylamino)-2-methoxy-5-methylphenyl)-3′-isopropyl-3′H-spiro[dihydroindole-3,4′-pyrrolo[3,4-d]imidazole]-2,6′(5′H)-dione] | better |
| CCN(C)c1ccc(-c2nc3c(n2C(C)C)C2(C(=O)Nc4cc(Cl)ccc42)N(c2cc(Cl)ccc2C)C3=O)c(OC)c1 (stereo not drawn) [Example 99, 6-chloro-5′-(5-chloro-2-methylphenyl)-2′-(4-(ethyl(methyl)amino)-2-methoxyphenyl)-3′-isopropyl-3′H-spiro[dihydroindole-3,4′-pyrrolo[3,4-d]imidazole]-2,6′(5′H)-dione] | better |
| COc1cc(C(C)(C)C)ccc1-c1nc2c(n1C(C)C)C1(C(=O)Nc3cc(Cl)ccc31)N(c1cc(Cl)ccc1C)C2=O (stereo not drawn) [Example 101, 2′-(4-(tert-butyl)-2-methoxyphenyl)-6-chloro-5′-(5-chloro-2-methylphenyl)-3′-isopropyl-3′H-spiro[dihydroindole-3,4′-pyrrolo[3,4-d]imidazole]-2,6′(5′H)-dione] | better |
| COc1cc(C2CC2)ncc1-c1nc2c(n1C(C)C)C1(C(=O)Nc3cc(Cl)ccc31)N(c1cccc(Cl)c1)C2=O (stereo not drawn) [Example 106, 6-chloro-5′-(3-chlorophenyl)-2′-(6-cyclopropyl-4-methoxypyridin-3-yl)-3′-isopropyl-3′H-spiro[dihydroindole-3,4′-pyrrolo[3,4-d]imidazole]-2,6′(5′H)-dione] | better |
| COc1cc(C2CC2)cc(OC)c1-c1nc2c(n1C(C)C)C1(C(=O)Nc3cc(Cl)ccc31)N(c1cc(Cl)ccc1C)C2=O (stereo not drawn) [Example 108, 6-chloro-5′-(5-chloro-2-methylphenyl)-2′-(4-cyclopropyl-2,6-dimethoxyphenyl)-3′-isopropyl-3′H-spiro[dihydroindole-3,4′-pyrrolo[3,4-d]imidazole]-2,6′(5′H)-dione] | better |
| COc1nc(N2CCCC2)ncc1-c1nc2c(n1C(C)C)C1(C(=O)Nc3cc(Cl)ccc31)N(c1cc(Cl)ccc1C)C2=O (stereo not drawn) [Example 114] | better |
| CCN(C)c1ncc(-c2nc3c(n2C(C)C)C2(C(=O)Nc4cc(Cl)ccc42)N(c2cc(Cl)ccc2C)C3=O)c(OC)n1 (stereo not drawn) [Example 119, 6-chloro-5′-(5-chloro-2-methylphenyl)-2′-(2-(ethyl(methyl)amino)-4-methoxypyrimidin-5-yl)-3′-isopropyl-3′H-spiro[dihydroindole-3,4′-pyrrolo[3,4-d]imidazole]-2,6′(5′H)-dione] | better |
| COc1nc(C2CC2)ncc1-c1nc2c(n1C(C)C)C1(C(=O)Nc3cc(Cl)ccc31)N(c1cc(Cl)ccc1C)C2=O (stereo not drawn) [Example 121, 6-chloro-5′-(5-chloro-2-methylphenyl)-2′-(2-cyclopropyl-4-methoxypyrimidin-5-yl)-3′-isopropyl-3′H-spiro[dihydroindole-3,4′-pyrrolo[3,4-d]imidazole]-2,6′(5′H)-dione] | better |
| CCOc1ncc(-c2nc3c(n2C(C)C)C2(C(=O)Nc4cc(Cl)ccc42)N(c2cc(Cl)ccc2C)C3=O)c(OC)n1 (stereo not drawn) [Example 127] | better |
